The source of these data is patent US12304912B2, “Fused bicyclic RAF inhibitors and methods for use thereof” (Jazz Pharmaceuticals Ireland Limited, priority 2020, dated 2025).

The subject of data set [1] is constitutive ERK phosphorylation in HCT-116 cells. The data set is described as follows: HCT-116 AlphaLISA SureFire pERK1/2 cellular assay. In kind it is cell-based, human. Conditions: Homo sapiens, read-out: pERK HCT116 (2 hr) Abs pIC50 (converted). In short, it runs like this:
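Cells seeded overnight (30,000/well for 2 h, 15,000/well for 24 h), then dosed in 1% FBS medium with a 10-point series from 1 μM top, 1/3 log steps, for 2 or 24 h at 37 °C. Lysates read by AlphaLISA for Thr202/Tyr204 pERK1/2; absolute IC50 versus DMSO control.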
For orientation: In Alpha technology, singlet oxygen from a donor bead excites a nearby acceptor bead.

The subject of data set [2] is constitutive ERK phosphorylation in WiDr cells. The data set is described as follows: WiDr AlphaLISA SureFire pERK1/2 cellular assay. The data set is classed as cell-based, human. The settings on record: Homo sapiens, read-out: pERK WiDr (2 hr) Abs pIC50 (converted). The method, then:
The human HCT-116 colorectal carcinoma cell line (ATCC CCL-247) endogenously expresses the KRAS^G13D mutation, which leads to constitutive activation of the MAP kinase pathway and phosphorylation of ERK. […] Assay read outs took place 2 or 24 hours after dosing with compounds. On the first day, HCT-116 cells were harvested, resuspended in growth medium (McCoys5A with Glutamax (Life Technologies 36600021) and 10% heat-inactivated fetal bovine serum (Sigma F9665)), and counted. Cells were plated in 100 μl per well in each well of a 96-well culture dish (Sigma CLS3598) to a final density of 30,000 (2 hr read) or 15,000 (24 hr read) cells per well and incubated over night at 37° C. and 5% CO2. On day 2, the growth medium was exchanged for dosing medium (McCoys5A with Glutamax (Life Technologies 36600021) and 1% heat-inactivated fetal bovine serum (Sigma F9665)) and the cells were dosed with compounds to produce a 10-point dose response, where the top concentration was 1 μM and subsequent concentrations were at 1/3 log dilution intervals. A matched DMSO control was included. The cells were subsequently incubated for either 2 or 24 hours at 37° C. and 5% CO2. After incubation, media was removed and the cells were incubated with lysis buffer containing phosphatase inhibitors for 15 minutes at room temperature. Cell lysates were transferred to a 12 area 96 well white Optiplate™ (Perkin Elmer 6005569) and incubated with anti-mouse IgG acceptor beads, a biotinylated anti-ERK1/2 rabbit antibody recognizing both phosphorylated and non-phosphorylated ERK1/2, a mouse antibody targeted to the Thr202/Tyr204 epitope and recognizing phosphorylated ERK proteins only, and streptavidin-coated donor beads. The biotinylated antibody binds to the streptavidin-coated donor beads and the phopsho-ERK1/2 antibody binds to the acceptor beads. Plates were read on an EnVision reader (Perkin Elmer) and excitation of the beads at 680 nm with a laser induced the release of singlet oxygen molecules from the donor beads that trigger energy transfer to the acceptor beads in close proximity, producing a signal that can be measured at […]. Both antibodies bound to phosphorylated ERK proteins, bringing the donor and acceptor beads into close proximity. All data were analyzed using the Dotmatics or GraphPad Prism software packages. Inhibition of ERK phosphorylation was assessed by determination of the absolute IC50 value, which is defined as the concentration of compound required to decrease the level of phosphorylated ERK proteins by 50% when compared to DMSO control.
WiDr AlphaLISA SureFire pERK1/2 Cellular Assay
The human WiDr colorectal adenocarcinoma cell line (ATCC CCL-218) endogenously expresses the BRAF^V600E mutation, which leads to constitutive activation of the MAP kinase pathway and phosphorylation of ERK. […] The main procedure is essentially the same as for HCT-116 cells (above), with the following adjustments to the growth medium (Eagle's Minimum Essential Medium (Sigma M2279) with 1× Glutamax (Life Technologies 35050038), 1× Sodium-Pyruvate (Sigma S8636), and 10% heat-inactivated fetal bovine serum (Sigma F9665)), the dosing medium (Eagle's Minimum Essential Medium (Sigma M2279) with 1× Glutamax (Life Technologies 35050038), 1× Sodium-Pyruvate (Sigma S8636), and 1% heat-inactivated fetal bovine serum (Sigma F9665)), and the seeding densities (2 hr: 50,000 cells per well; 24 hr: 35,000 cells per well). Moreover, the compounds were dosed in 1/2 log dilution intervals with the top concentration of 10 μM.

Data set [3] can be described thus: Microsomal stability assay, mouse liver microsomes (MLM). The data set is classed as in vitro ADME. The settings on record: 0.5 mg/mL protein, 1 μM substrate, 37° C. In short, it runs like this: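 Half-life and CLint come from the ln(% remaining)–time slope, with remaining compound quantified by LC-MS/MS after ice-cold solvent quench of timed samples. Incubations used 1 μM test compound and 0.5 mg·mL^−1 human or mouse liver microsomal protein at 37° C.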
(Liver microsomes are a subcellular fraction often used to study metabolism.)

The mark [4] stands for this setting: HCT-116, HCT116 cells, 2 hr, Abs.

The structures appear in SMILES notation. Like-named read-outs stand apart in the source and are kept apart here.

On to `Cc1cc(-c2c[nH]c(C3COc4ccc(Oc5ccnc6c5CCC(=O)N6)cc4C3)n2)n(CC(F)(F)F)n1` (stereo not drawn) [Compound 126, 5-[3-[4-[5-methyl-2-(2,2,2-trifluoroethyl)pyrazol-3-yl]-1H-imidazol-2-yl]chroman-6-yl]oxy-3,4-dihydro-1H-1,8-naphthyridin-2-one], for which the IC50 in data set [1] (setting [4]) was 501 nM; in data set [2] (WiDr cells, 2 hr, Abs), 1020 nM. Also, the microsomal CLint at 1 μM in data set [3] came out at 55.7 µL/min/mg.
As for `Cn1ncc2ccc(-c3c[nH]c(C4COc5ccc(Oc6ccnc7c6CCC(=O)N7)cc5C4)n3)cc21` (stereo not drawn) [Compound 130, 5-[3-[4-(1-methylindazol-6-yl)-1H-imidazol-2-yl]chroman-6-yl]oxy-3,4-dihydro-1H-1,8-naphthyridin-2-one], the IC50 in data set [1] (setting [4]) is 141 nM; in data set [2] (WiDr cells, 2 hr, Abs), 603 nM. In data set [3], the microsomal CLint at 1 μM worked out at 23.5 µL/min/mg.
Take `O=C1CCc2c(Oc3ccc4c(c3)CC(c3nc(C5CCOCC5)c[nH]3)CO4)ccnc2N1` (stereo not drawn) [Compound 132, 5-[3-(4-tetrahydropyran-4-yl-1H-imidazol-2-yl)chroman-6-yl]oxy-3,4-dihydro-1H-1,8-naphthyridin-2-one]: the IC50 in data set [1] (setting [4]) was 347 nM; in data set [2] (WiDr cells, 2 hr, Abs), 832 nM. Also, in data set [3], the microsomal CLint at 1 μM came to 9.3 µL/min/mg.
Turning to `O=C1CCc2c(Oc3ccc4c(c3)CC(c3nc5ccncc5[nH]3)CO4)ccnc2N1` (stereo not drawn) [Compound 134, 5-[3-(3H-imidazo[4,5-c]pyridin-2-yl)chroman-6-yl]oxy-3,4-dihydro-1H-1,8-naphthyridin-2-one], the IC50 in data set [1] (setting [4]) is > 1000 nM; in data set [2] (WiDr cells, 2 hr, Abs), 6170 nM. Further, in data set [3], the microsomal CLint at 1 μM was 72.4 µL/min/mg.
Regarding `O=C(Nc1cc(Oc2ccc3c(c2)CC(c2nc(-c4ccccc4)c[nH]2)CO3)ccn1)C1CC1(F)F` (stereo not drawn) [Compound 137, 2,2-difluoro-N-[4-[3-(4-phenyl-1H-imidazol-2-yl)chroman-6-yl]oxy-2-pyridyl]cyclopropanecarboxamide], the IC50 in data set [1] (setting [4]) is 35.5 nM; in data set [2] (WiDr cells, 2 hr, Abs) it was 74.1 nM. Also, the “MLM (CLint)” value in data set [3] turned out to be 277 µL/min/mg.
Take `c1ccc(-c2c[nH]c(C3COc4ccc(Oc5ccnc(Nc6ccccn6)c5)cc4C3)n2)cc1` (stereo not drawn) [Compound 140, 4-[3-(4-phenyl-1H-imidazol-2-yl)chroman-6-yl]oxy-N-(2-pyridyl)pyridin-2-amine]: the IC50 in data set [1] (setting [4]) was > 1000 nM; in data set [2] (WiDr cells, 2 hr, Abs), 1260 nM. Moreover, the microsomal CLint at 1 μM in data set [3] is 81.1 µL/min/mg.
The matching figures for `Cc1c[nH]c(-c2cc(Oc3ccc4c(c3)CC(c3nc(-c5ccccc5)c[nH]3)CO4)ccn2)n1` (stereo not drawn) [Compound 143, 2-(4-methyl-1H-imidazol-2-yl)-4-[3-(4-phenyl-1H-imidazol-2-yl)chroman-6-yl]oxy-pyridine]: 309 nM, 302 nM and 86.1 µL/min/mg.
Regarding `O=C(Cn1ccnc1)Nc1cc(Oc2ccc3c(c2)CC(c2nc(-c4ccccc4)c[nH]2)CO3)ccn1` (stereo not drawn) [Compound 144], the IC50 in data set [1] (setting [4]) was 45.7 nM; in data set [2] (WiDr cells, 2 hr, Abs), 95.5 nM. In addition, in data set [3], the intrinsic clearance (microsomal CLint) at 1 μM was found to be 29.3 µL/min/mg.
Turning to `O=C(CN1CC[C@@H](O)C1)Nc1cc(Oc2ccc3c(c2)CC(c2nc(-c4ccccc4)c[nH]2)CO3)ccn1` (stereo partly drawn) [Compound 145], the IC50 is 166 nM in data set [1] (setting [4]) and 331 nM in data set [2] (WiDr cells, 2 hr, Abs). Besides, the microsomal CLint at 1 μM in data set [3] was determined as 147 µL/min/mg.
The matching figures for `CN1CCN(CC(=O)Nc2cc(Oc3ccc4c(c3)CC(c3nc(-c5ccccc5)c[nH]3)CO4)ccn2)CC1` (stereo not drawn) [Compound 146, 2-(4-methylpiperazin-1-yl)-N-[4-[3-(4-phenyl-1H-imidazol-2-yl)chroman-6-yl]oxy-2-pyridyl]acetamide]: 178 nM, 398 nM and 89.7 µL/min/mg.
The matching figures for `CN1CCC(C(=O)Nc2cc(Oc3ccc4c(c3)CC(c3nc(-c5ccccc5)c[nH]3)CO4)ccn2)CC1` (stereo not drawn) [Compound 147, 1-methyl-N-[4-[3-(4-phenyl-1H-imidazol-2-yl)chroman-6-yl]oxy-2-pyridyl]piperidine-4-carboxamide]: 324 nM, 871 nM and 102 µL/min/mg.
The matching figures for `O=C(Nc1nccc(Oc2ccc3c(c2)CC(c2nc(-c4ccccc4)c[nH]2)CO3)n1)C1CC1` (stereo not drawn) [Compound 148, N-[4-[3-(4-phenyl-1H-imidazol-2-yl)chroman-6-yl]oxypyrimidin-2-yl]cyclopropanecarboxamide]: 302 nM, 871 nM and 211 µL/min/mg.
In the case of `O=C(CN1CCOCC1)Nc1cc(Oc2ccc3c(c2)CC(c2nc(-c4ccccc4)c[nH]2)CO3)ccn1` (stereo not drawn) [Compound 149], the IC50 is 316 nM in data set [1] (setting [4]) and 933 nM in data set [2] (WiDr cells, 2 hr, Abs). Further, the intrinsic metabolic clearance (microsomal CLint) at 1 μM in data set [3] is 231 µL/min/mg.
As to `O=C(Nc1cc(Oc2ccc3c(c2)CC(c2nc(-c4ccccc4)c[nH]2)CO3)ncn1)C1CC1` (stereo not drawn) [Compound 151, N-[6-[3-(4-phenyl-1H-imidazol-2-yl)chroman-6-yl]oxypyrimidin-4-yl]cyclopropanecarboxamide], the IC50 in data set [1] (HCT-116, 2 h) was 178 nM; in data set [2] (WiDr, 2 h), 224 nM. In addition, in data set [3], the microsomal CLint at 1 μM is 161 µL/min/mg.
For `O=C(CN1CCCC1)Nc1cc(Oc2ccc3c(c2)CC(c2nc(-c4ccccc4)c[nH]2)CO3)ccn1` (stereo not drawn) [Compound 152], the IC50 in data set [1] (setting [4]) was 209 nM; in data set [2] (WiDr cells, 2 hr, Abs), 219 nM. The microsomal CLint at 1 μM in data set [3] turned out to be 259 µL/min/mg.
Turning to `O=C(CN1CC(O)C1)Nc1cc(Oc2ccc3c(c2)CC(c2nc(-c4ccccc4)c[nH]2)CO3)ccn1` (stereo not drawn) [Compound 153], the IC50 in data set [1] (setting [4]) is 200 nM; in data set [2] (WiDr cells, 2 hr, Abs) it was 288 nM. Further, the microsomal CLint at 1 μM in data set [3] was 92.9 µL/min/mg.
Consider `O=C(Cn1cncn1)Nc1cc(Oc2ccc3c(c2)CC(c2nc(-c4ccccc4)c[nH]2)CO3)ccn1` (stereo not drawn) [Compound 154], for which the IC50 was 28.2 nM in data set [1] (setting [4]) and 33.1 nM in data set [2] (WiDr cells, 2 hr, Abs). In addition, in data set [3], the microsomal CLint at 1 μM was 95.2 µL/min/mg.
For the compound `O=C(Nc1cc(Oc2ccc3c(c2)CC(c2nc(-c4ccc(F)cc4)c[nH]2)CO3)ccn1)C1CC1` (stereo not drawn) [Compound 155, N-[4-[3-[4-(4-fluorophenyl)-1H-imidazol-2-yl]chroman-6-yl]oxy-2-pyridyl]cyclopropanecarboxamide], the IC50 in data set [1] (setting [4]) is 60.3 nM; in data set [2] (WiDr cells, 2 hr, Abs) it was 102 nM. In addition, the “MLM (CLint)” value in data set [3] was determined as 277 µL/min/mg.
For `CC(=O)Nc1cc(Oc2ccc3c(c2)CC(c2nc(-c4ccccc4)c[nH]2)CO3)ccn1` (stereo not drawn) [Compound 156, N-[4-[3-(4-phenyl-1H-imidazol-2-yl)chroman-6-yl]oxy-2-pyridyl]acetamide], the IC50 in data set [1] (setting [4]) was 42.7 nM; in data set [2] (WiDr cells, 2 hr, Abs), 132 nM. Also, the microsomal CLint at 1 μM in data set [3] stood at 152 µL/min/mg.
`CC1CC1C(=O)Nc1cc(Oc2ccc3c(c2)CC(c2nc(-c4ccccc4)c[nH]2)CO3)ccn1` (stereo not drawn) [Compound 157]: the IC50 in data set [1] (setting [4]) was 112 nM; in data set [2] (WiDr cells, 2 hr, Abs), 275 nM. The “MLM (CLint)” value in data set [3] stood at 277 µL/min/mg.
On to `O=C1CCc2c(Oc3ccc4c(c3)CN(c3nc5cc(C(F)(F)F)ccc5[nH]3)CC4)ccnc2N1` [Compound 160], for which the IC50 was 135 nM in data set [1] (setting [4]) and 219 nM in data set [2] (WiDr cells, 2 hr, Abs). In addition, in data set [3], the microsomal CLint at 1 μM was 4.5 µL/min/mg.

In general, microsomal CLint refers to the capacity of the preparation to metabolise the compound, expressed as a volume cleared per time.
